# Values quoted from earlier work as cited in patent publication US20250312272A1, “PHARMACEUTICAL FORMULATIONS FOR ORAL ADMINISTRATION AND METHODS OF MAKING AND USING THE SAME” (Aaryen Pharma LLC, priority 2024, published 2025).
# Counter-ions that a name gives are not always drawn.
SMILES,solubility in water,solubility (descriptive term of Table 1) (in water)
COc1ccc2c(c1)[C@]13CCCC[C@@H]1[C@H](C2)N(C)CC3 [dextromethorphan hydrobromide],water soluble,–
COc1ccccc1OCC(O)CO (centres unmarked) [guaifenesin],–,sparingly soluble
